The experiment deals with Carbonic anhydrase V (Homo sapiens, UniProt Q9Y2D0+P35218).

In the case of `CC1(C)O[C@@H]2[C@@H](CO[C@@]3(COS(N)(=O)=O)OC(C)(C)O[C@@H]23)O1` [TOPIRAMATE], the Ki stood at 25.4 nM.

A word on the Ki: it is a dissociation constant, usually derived from enzyme kinetics or from competition with a known ligand. Read a low Ki as tighter binding.

The record behind these values is ChEMBL document CHEMBL1141924 (Bioorg Med Chem Lett, 2005).
